Results: PMC9311641, “Antitubercular, Cytotoxicity, and Computational Target Validation of Dihydroquinazolinone Derivatives” (Antibiotics, 2022)
Values after ≈ are worked out from the molar mass of the structure shown. Values joined by “and” are separate entries in the source; they are usually repeats but may differ in a detail not shown here. Equal entries are not always repeated.

Assays:
Format in all cases: cell-based
[1] = system: Mycobacterium tuberculosis H37Rv (ATCC 25177); experiment: Whole-cell anti-TB MIC, Resazurin Microplate Assay (REMA); settings: MTB H37Rv; for MIC: Mycobacterium tuberculosis, REMA, read-out: Level of Activity (MIC), Susceptible (H37Rv)
[2] = MTT cytotoxicity assay; settings: mean ± SD of three replicates
Method: (§1) Fibroblast cells were cultured in Iscove’s Modified Dulbecco’s Medium (Euro Clone, Italy) as recommended by ATCC. The media was supplemented with 10% heat-inactivated fetal bovine serum (FBS) (Ebsdorfergrund, Germany), 1% of 2 mM L-glutamine, 100 U/mL penicillin, and 100 µg/mL streptomycin. According to the cells’ growth profile, fibroblast-seeding density was 1 × 10^5 cell/well. Cell viability was determined by trypan blue exclusion using a hemocytometer.
(§2) The MTT colorimetric assay was used to assess the effect of the synthesized compounds on the viability of the fibroblast cell lines. […] A volume of 10 mL of the culture media was added, and the cell suspension was centrifuged at 1000 rpm for 10 min. The pellets were resuspended in a 10 mL medium to make a single-cell suspension. […] The cell suspension was diluted to give the optimal seeding density, and 100 µL of the cell suspension was plated in a 96-well plate. Cells were cultured at 37 °C in a humidified atmosphere of 5% CO2. After 24 h incubation, the cells were treated with 100 µM of the synthesized compounds (diluted in culture media to yield the required concentration) and then incubated for 72 h. At the end of the exposure time, 15 µL of MTT stock solution (5 mg/mL in sterile PBS, pH 7.4) (Promega, Madison, WI, USA) was added to each well and incubated for 3 h. After that, 100 µL of solubilizing stop solution was added to each well to solubilize the dark violet formazan crystals. The optical densities at 570 nm were then measured using a micro-plate reader (Biotek, Winooski, VT, USA), and the percentage of cell viability was calculated with respect to a control corresponding to untreated cells.

[3] = system: MDR strains of Mycobacterium tuberculosis; experiment: Whole-cell anti-TB MIC, Resazurin Microplate Assay (REMA); settings: for MIC: Mycobacterium tuberculosis, read-out: Level of Activity (MIC), MDR; for Level of Activity (MIC), MDR: MDR MTB strains, REMA
[4] = system: normal human skin fibroblast cells (CCD-1064SK); experiment: MTT cytotoxicity assay; settings: 72 h, mean ± SD of three replicates
Method: as §1, §2

[5] = human, CCD-1064SK normal human skin fibroblast cells

| Structure (SMILES) | MIC [1] [µg/mL] | cytotoxicity at 72 h, 100 µM ([2]; normal human fibroblast cells) [%] | MIC [3] [µg/mL] | cytotoxicity at 72 h, 100 µM [2, 5] [%] | Level of Activity (MIC), MDR [3] | MIC against susceptible H37Rv M. tuberculosis strain [1] [µg/mL] | Cytotoxicity (%) at 100 µM [4] |
| --- | --- | --- | --- | --- | --- | --- | --- |
| COc1ccc(C2NC(=O)c3ccccc3N2)cc1 (centres unmarked) [Compound 3a] | 64 (≈ 252 µM) | 28.8 ± 0.6 | > 128 | – | – | – | – |
| COc1ccc(C2NC(=O)c3ccccc3N2)cc1OC (centres unmarked) [Compound 3g] | 64 (≈ 225 µM) | – | – | 32.5 ± 11 | No activity | – | – |
| O=C1NC(c2ccc(F)cc2)Nc2ccccc21 (centres unmarked) [Compound 3j] | > 64 | – | – | 44.1 ± 11.5 | No activity | – | – |
| N#Cc1ccc(C2NC(=O)c3ccccc3N2)cc1 (centres unmarked) [Compound 3b] | > 64 | – | – | 19.5 ± 5 | No activity | – | – |
| O=C1NC(c2cccc(O)c2)Nc2ccccc21 (centres unmarked) [Compound 3c] | 8 (≈ 33.3 µM) | – | > 32 | 58.5 ± 1.1 | – | – | – |
| CN(C)c1ccc(C2NC(=O)c3ccccc3N2)cc1 (centres unmarked) [Compound 3h] | > 128 | – | – | 54.6 ± 2.8 | No activity | – | – |
| O=C1NC(c2cc(Br)ccc2F)Nc2ccccc21 (centres unmarked) [Compound 3l, 2-(5-bromo-2-fluorophenyl)-2,3-dihydroquinazolin-4(1H)-one] | 2 (≈ 6.23 µM) | – | > 64 | 36 | – | 2 (≈ 6.23 µM) | 36.3 ± 4.2% |
| O=C1NC(c2c[nH]cn2)Nc2ccccc21 (centres unmarked) [Compound 3k] | 4 (≈ 18.7 µM) | 19.2 ± 4.9 | 16 (≈ 74.7 µM) | – | – | 4 (≈ 18.7 µM) | – |
| O=C1NC(c2ccc(OC(F)(F)F)cc2)Nc2ccccc21 (centres unmarked) [Compound 3d] | > 64 | – | – | 47.6 ± 1.6 | No activity | – | – |
| O=C1NC(c2ccc(Cl)cc2)Nc2ccccc21 (centres unmarked) [Compound 3f] | > 128 | – | – | 57.6 ± 3.7 | No activity | – | – |
| O=C1NC(c2cccc([N+](=O)[O-])c2)Nc2ccccc21 (centres unmarked) [Compound 3i] | > 64 | – | – | 24.1 ± 3.9 | No activity | – | – |
| O=C1NC(c2cccc(I)c2)Nc2ccccc21 (centres unmarked) [Compound 3e] | 128 (≈ 366 µM) | – | – | 72 ± 8.3 | No activity | – | – |
| COc1cc([N+](=O)[O-])ccc1C1NC(=O)c2ccccc2N1 (centres unmarked) [Compound 3m] | 2 (≈ 6.68 µM) | – | > 64 | 31 | – | 2 (≈ 6.68 µM) | 30% and 30.9 ± 8.8% |
